Measurements reported in patent US9301965B2, “Method of treating ovarian cancer using a PKC inhibitor” (University of South Florida, priority 2014, dated 2016).
“And” between values parts separate entries of the source, which are not always exact repeats. Identical values can stand only once.

Columns and labels:
[1] = molecular target: T1, PKC-ι (Homo sapiens, UniProt P41743); conditions: cited from earlier work
T1 sequence (P41743 1-596): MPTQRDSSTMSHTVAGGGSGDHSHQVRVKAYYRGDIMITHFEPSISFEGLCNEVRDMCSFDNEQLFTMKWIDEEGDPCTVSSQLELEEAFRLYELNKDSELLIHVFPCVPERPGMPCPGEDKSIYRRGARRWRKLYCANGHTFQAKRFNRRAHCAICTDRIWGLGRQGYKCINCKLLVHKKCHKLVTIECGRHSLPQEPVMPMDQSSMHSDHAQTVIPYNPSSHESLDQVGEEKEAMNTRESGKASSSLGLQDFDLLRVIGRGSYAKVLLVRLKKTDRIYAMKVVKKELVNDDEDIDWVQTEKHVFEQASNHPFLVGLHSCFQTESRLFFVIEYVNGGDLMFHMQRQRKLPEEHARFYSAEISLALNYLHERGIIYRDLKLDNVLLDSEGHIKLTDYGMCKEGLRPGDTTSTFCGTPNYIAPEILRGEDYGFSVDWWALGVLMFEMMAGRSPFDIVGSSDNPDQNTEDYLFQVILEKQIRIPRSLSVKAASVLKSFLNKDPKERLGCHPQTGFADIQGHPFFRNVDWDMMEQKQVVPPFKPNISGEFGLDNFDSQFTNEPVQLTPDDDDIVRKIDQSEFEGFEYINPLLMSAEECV

[2] = test system: HEY ovarian cancer cells; experiment: Total RNA concentration of HEY cells (Rneasy Mini Kit, NanoDrop1000); assay type: cell-based, human; conditions: for reduction of total RNA: 2 μM
Description: RNA was isolated from the treated and untreated cells using the Rneasy Mini Kit and protocol. The total RNA concentration was estimated using the NanoDrop1000 spectrophotometer.

[3] = molecular target: T2, PKC-ζ (Homo sapiens, UniProt Q05513); conditions: cited from earlier work
T2 sequence (Q05513 1-592): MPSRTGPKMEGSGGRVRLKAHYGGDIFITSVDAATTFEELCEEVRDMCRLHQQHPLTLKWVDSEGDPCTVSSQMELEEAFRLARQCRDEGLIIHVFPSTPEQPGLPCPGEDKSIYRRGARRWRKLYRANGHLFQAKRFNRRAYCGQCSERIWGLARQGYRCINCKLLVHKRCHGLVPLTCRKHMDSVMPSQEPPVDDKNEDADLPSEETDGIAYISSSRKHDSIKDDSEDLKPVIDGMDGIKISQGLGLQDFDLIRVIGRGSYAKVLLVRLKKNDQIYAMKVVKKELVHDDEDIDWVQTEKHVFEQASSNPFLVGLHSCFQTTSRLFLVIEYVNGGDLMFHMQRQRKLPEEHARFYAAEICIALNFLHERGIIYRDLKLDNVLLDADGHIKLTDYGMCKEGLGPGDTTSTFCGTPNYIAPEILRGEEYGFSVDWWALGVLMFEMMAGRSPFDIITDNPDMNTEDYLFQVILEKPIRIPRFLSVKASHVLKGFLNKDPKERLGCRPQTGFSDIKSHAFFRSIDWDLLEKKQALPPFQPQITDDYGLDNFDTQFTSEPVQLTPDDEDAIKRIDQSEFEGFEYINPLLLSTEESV

[4] = molecular target: T3, PKC-ε (Homo sapiens, UniProt Q02156); conditions: cited from earlier work
T3 sequence (Q02156 1-737): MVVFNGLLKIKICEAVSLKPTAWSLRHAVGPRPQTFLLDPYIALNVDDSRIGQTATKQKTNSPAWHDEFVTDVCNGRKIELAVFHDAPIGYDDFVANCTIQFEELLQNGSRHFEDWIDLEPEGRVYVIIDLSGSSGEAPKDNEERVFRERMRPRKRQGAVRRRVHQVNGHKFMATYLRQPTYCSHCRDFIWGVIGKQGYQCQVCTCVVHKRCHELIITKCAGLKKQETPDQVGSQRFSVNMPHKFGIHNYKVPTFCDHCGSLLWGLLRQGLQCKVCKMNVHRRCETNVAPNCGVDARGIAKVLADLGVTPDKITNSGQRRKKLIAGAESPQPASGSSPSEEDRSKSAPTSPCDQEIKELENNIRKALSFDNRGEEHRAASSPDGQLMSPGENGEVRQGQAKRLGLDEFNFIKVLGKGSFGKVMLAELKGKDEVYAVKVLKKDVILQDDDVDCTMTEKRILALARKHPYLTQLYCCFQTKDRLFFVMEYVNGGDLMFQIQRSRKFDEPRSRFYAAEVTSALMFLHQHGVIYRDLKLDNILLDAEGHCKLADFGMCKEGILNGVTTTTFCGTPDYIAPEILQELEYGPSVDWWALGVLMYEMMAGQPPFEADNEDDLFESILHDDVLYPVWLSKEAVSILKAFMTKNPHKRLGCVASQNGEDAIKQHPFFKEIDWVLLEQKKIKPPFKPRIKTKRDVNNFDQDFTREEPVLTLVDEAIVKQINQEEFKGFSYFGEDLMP

[5] = test system: HEY ovarian cancer cells; experiment: HEY cell proliferation, Trypan blue exclusion assay; assay type: cell-based, human
Experimental: HEY human ovarian carcinoma cells were obtained from Dr. Meera Nanjundan's laboratory at the University of South Florida. The cells were grown as a monolayer in a T25 tissue culture flask with 5 mL of growth medium and maintained in a 37° C. incubator with 5% CO2. The RPMI1640 growth medium was obtained from and American Type Culture Collection (ATCC) and Life Technologies (Carlsbad, Calif.). The medium was supplemented with 10% fetal bovine serum (FBS) and a mix of the antibiotics Penicillin (10,000 IU) and Streptomycin (10,000 μg/ml) in a 100× concentration which was purchased from Corning.
HEY cells were cultured in a T25 cell culture flask. 13,000 cells were seeded into each well in a 6-well culture plate. ACPD was weighed and dissolved in water to create a 100 mM stock solution. From this solution, serial dilutions were done to create a 1 mM stock solution which was then used for treatment. In order to assess the effect of ACPD on cell viability, three wells were treated with 2 μM ACPD while the other three wells were left untreated as controls. The treatment period was 72 hours with the growth medium being changed every 24 hours. The cells were also washed with DPBS every time the growth medium was changed. Cell viability was determined at 24, 48 and 72 hours using a Trypan blue exclusion assay where 30 μL of the cell suspension was added to 30 μL of Trypan blue. The number of unstained cells was counted using a hematocytometer. The same procedures were used for ICA-1.
The experiments were performed as per the protocol described by Patel et al. (2008), herein incorporated by reference. Briefly, cells were cultured in T75 flasks in monolayers. For treatment, 40,000 cells were seeded into T75 flasks and treated for 72 hours with ICA-1 and ACPD. The proliferation was measured each day by a Trypan Blue exclusion assay which involved staining the cells with Trypan Blue and counting them under a microscope using a hemocytometer.

[6] = molecular target: PKC-β (Homo sapiens, UniProt P05771); conditions: cited from earlier work
PKC-β, sequence (P05771 whole entry, species assumed): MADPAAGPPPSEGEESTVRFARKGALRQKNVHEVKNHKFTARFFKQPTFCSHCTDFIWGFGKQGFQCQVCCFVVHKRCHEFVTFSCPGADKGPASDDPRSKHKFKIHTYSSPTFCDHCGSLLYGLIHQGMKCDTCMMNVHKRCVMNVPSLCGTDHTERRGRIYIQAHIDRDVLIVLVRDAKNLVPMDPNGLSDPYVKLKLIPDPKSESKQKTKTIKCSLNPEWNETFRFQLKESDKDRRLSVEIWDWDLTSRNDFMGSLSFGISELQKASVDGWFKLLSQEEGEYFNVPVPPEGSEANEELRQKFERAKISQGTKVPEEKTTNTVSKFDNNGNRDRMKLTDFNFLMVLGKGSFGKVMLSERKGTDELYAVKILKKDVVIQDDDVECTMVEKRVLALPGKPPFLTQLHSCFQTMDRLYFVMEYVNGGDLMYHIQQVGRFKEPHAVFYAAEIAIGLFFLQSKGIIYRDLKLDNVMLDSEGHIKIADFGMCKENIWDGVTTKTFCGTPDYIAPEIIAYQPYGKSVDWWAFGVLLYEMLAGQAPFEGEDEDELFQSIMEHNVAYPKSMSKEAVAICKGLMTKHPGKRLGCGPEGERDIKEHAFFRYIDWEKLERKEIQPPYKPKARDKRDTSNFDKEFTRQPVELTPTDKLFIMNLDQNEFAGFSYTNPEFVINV

[7] = molecular target: PKC-δ (Homo sapiens, UniProt Q05655); conditions: cited from earlier work
PKC-δ, sequence (Q05655 whole entry): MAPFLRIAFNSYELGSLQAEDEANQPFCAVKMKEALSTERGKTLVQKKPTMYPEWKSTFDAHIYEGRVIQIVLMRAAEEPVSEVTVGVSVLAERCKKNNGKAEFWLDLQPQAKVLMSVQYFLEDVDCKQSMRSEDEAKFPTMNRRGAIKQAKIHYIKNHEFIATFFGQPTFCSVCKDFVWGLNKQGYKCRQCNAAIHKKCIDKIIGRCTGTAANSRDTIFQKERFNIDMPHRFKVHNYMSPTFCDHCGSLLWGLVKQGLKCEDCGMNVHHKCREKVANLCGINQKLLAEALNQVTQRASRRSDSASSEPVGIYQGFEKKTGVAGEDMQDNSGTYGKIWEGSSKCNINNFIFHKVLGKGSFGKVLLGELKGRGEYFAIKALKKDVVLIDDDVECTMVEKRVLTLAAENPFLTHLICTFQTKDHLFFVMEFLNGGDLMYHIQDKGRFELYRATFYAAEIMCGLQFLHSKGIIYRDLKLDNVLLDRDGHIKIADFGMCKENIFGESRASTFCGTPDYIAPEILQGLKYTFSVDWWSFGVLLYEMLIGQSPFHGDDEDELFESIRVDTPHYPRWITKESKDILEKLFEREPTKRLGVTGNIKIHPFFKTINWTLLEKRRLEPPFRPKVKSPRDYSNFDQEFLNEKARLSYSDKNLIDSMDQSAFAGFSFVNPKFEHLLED

[8] = molecular target: PKC-α (Homo sapiens, UniProt P17252); conditions: cited from earlier work
[9] = molecular target: T1, PKC-ι; conditions: cited from earlier work; remark: listed apart in the source

Structure (SMILES): CC(=O)C1=C(O)CCC1=O [ACPD, 2-acetyl-1,3-cyclopentanedione]
- inhibition of PKC-ι [1]: inhibits both PKC-ζ and PKC-ι
- reduction of total RNA concentration ([2]; 1.8 μM, 72 hour treatment): 38%
- reduction of total RNA ([2]; 24 hours): 97% and 97.4%
- reduction of total RNA ([2]; 48 hours): 52.4% and 52%
- reduction of total RNA ([2]; 72 hours): 34.3% and 34%
- inhibition of PKC-ζ [3]: inhibits both PKC-ζ and PKC-ι
- inhibition of PKC-ε [4]: not PKC-α, PKC-β, PKC-δ, or PKC-ε
- reduction of cell proliferation ([5]; 800 nM, 72 hour treatment): 16%
- reduction of cell proliferation ([5]; 1.8 μM, 72 hour treatment): 28%
- reduction of cell proliferation ([5]; 2 μM, 24 hours, compared to controls): 82% and 81.75%
- reduction of cell proliferation ([5]; 2 μM, 48 hours): 60.5% and 60%
- effectiveness in inhibiting cell proliferation relative to ICA-1 ([5]; HEY ovarian cancer cells): over five times more effective than ICA-1
- inhibition of PKC-β [6]: not PKC-α, PKC-β, PKC-δ, or PKC-ε
- inhibition of PKC-δ [7]: not PKC-α, PKC-β, PKC-δ, or PKC-ε
- inhibition of PKC-α [8]: not PKC-α, PKC-β, PKC-δ, or PKC-ε

Structure (SMILES): O=C([O-])CC([S][Au])C(=O)[O-] (centres unmarked) [Sodium aurothiomalate]
- binding to PKC-ι [9]: low micromolar range

Structure (SMILES): OC[C@H]1O[C@H]([S][Au])[C@H](O)[C@@H](O)[C@@H]1O [aurothioglucose]
- binding to PKC-ι [9]: low micromolar range
